Measured values taken from ChEMBL document CHEMBL1147509, “Pharmacology of the agonist binding sites of rat neuronal nicotinic receptor subtypes expressed in HEK 293 cells” (Bioorg Med Chem Lett, 2004).
pKi: −log10 of the molar value.

Experiments:
[1] = Binding affinity towards rat alpha2-beta4 nACh receptor expressed in HEK293 cells using [3H]EB as radioligand; type: cell-based
[2] = molecular target: Neuronal acetylcholine receptor; alpha3/beta4 (Rattus norvegicus, UniProt P04757+P12392); assay: Binding affinity towards rat Nicotinic acetylcholine receptor alpha3-beta4 expressed in HEK293 cells using [3H]EB as radioligand; type: cell-based
Neuronal acetylcholine receptor; alpha3/beta4, sequence (P04757 whole entry): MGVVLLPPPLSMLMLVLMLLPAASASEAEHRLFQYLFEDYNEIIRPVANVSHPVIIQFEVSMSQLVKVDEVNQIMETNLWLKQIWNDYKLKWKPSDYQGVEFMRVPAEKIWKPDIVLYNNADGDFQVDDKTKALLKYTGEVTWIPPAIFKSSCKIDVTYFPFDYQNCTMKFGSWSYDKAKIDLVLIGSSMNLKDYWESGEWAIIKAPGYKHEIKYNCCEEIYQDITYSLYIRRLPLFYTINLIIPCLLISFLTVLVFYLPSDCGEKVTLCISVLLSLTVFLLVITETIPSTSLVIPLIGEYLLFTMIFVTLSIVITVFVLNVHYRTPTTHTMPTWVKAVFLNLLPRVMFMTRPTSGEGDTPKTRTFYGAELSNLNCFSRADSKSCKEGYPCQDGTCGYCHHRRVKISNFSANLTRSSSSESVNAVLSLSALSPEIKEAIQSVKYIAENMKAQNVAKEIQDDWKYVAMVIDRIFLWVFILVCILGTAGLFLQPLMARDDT
Neuronal acetylcholine receptor; alpha3/beta4, sequence (P12392 whole entry): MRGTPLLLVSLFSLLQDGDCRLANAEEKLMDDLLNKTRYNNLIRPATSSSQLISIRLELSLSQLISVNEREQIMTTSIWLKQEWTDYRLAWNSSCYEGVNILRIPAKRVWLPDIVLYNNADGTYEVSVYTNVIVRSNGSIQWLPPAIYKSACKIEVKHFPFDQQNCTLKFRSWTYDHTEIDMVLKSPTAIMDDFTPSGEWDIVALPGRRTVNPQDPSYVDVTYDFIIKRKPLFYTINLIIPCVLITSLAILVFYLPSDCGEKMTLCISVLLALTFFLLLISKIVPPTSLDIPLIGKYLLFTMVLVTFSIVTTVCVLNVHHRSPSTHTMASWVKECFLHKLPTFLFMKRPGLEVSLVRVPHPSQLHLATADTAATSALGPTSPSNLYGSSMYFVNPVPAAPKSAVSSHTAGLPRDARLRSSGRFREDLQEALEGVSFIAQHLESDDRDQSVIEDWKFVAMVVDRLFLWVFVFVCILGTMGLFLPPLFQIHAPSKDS

[3] = molecular target: Neuronal acetylcholine receptor; alpha4/beta4 (Rattus norvegicus, UniProt P09483+P12392); assay: Binding affinity towards rat Nicotinic acetylcholine receptor alpha4-beta4 expressed in HEK293 cells using [3H]EB as radioligand; type: cell-based
Neuronal acetylcholine receptor; alpha4/beta4, sequence (P09483 whole entry): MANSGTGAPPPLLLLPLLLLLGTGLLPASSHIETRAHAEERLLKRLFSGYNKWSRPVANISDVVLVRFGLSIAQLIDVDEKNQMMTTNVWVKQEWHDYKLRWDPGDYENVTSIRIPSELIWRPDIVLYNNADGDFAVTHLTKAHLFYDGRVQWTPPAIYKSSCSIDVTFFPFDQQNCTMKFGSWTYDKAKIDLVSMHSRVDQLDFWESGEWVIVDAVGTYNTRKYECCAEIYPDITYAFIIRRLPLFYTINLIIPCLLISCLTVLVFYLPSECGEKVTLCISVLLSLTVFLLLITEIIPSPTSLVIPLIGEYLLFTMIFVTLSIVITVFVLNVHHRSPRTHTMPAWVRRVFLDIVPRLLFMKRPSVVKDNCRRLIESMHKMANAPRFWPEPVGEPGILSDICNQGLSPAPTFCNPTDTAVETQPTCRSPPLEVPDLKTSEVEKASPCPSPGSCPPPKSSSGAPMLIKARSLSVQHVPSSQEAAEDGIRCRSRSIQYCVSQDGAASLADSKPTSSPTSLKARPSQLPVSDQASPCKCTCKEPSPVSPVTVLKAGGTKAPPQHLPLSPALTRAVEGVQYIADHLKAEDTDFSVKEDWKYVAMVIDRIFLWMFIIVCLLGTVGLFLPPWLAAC
Neuronal acetylcholine receptor; alpha4/beta4, sequence (P12392 whole entry): as the sequence (P12392 whole entry) above

[4] = molecular target: Neuronal acetylcholine receptor; alpha3/beta2 (Rattus norvegicus, UniProt P04757+P12390); assay: Binding affinity towards rat Nicotinic acetylcholine receptor alpha3-beta2 expressed in HEK293 cells using [3H]EB as radioligand; type: cell-based
Neuronal acetylcholine receptor; alpha3/beta2, sequence (P04757 whole entry): as the sequence (P04757 whole entry) above
Neuronal acetylcholine receptor; alpha3/beta2, sequence (P12390 whole entry): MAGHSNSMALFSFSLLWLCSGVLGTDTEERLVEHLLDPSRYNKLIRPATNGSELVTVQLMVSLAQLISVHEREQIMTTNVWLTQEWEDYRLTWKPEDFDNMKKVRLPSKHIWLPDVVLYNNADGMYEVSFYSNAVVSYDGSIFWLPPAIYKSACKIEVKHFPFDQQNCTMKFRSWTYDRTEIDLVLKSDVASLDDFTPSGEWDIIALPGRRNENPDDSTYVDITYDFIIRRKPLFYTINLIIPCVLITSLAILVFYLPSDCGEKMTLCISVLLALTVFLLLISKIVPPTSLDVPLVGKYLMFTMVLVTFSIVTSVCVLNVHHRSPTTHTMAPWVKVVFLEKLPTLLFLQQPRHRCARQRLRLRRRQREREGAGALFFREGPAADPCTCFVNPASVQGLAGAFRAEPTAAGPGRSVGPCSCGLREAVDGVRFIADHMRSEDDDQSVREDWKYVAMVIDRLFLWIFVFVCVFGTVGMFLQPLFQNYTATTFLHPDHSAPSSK

[5] = molecular target: Neuronal acetylcholine receptor; alpha2/beta2 (Rattus norvegicus, UniProt P12389+P12390); assay: Binding affinity towards rat nicotinic acetylcholine receptor alpha2-beta2 expressed in HEK293 cells using [3H]EB as radioligand; type: cell-based
Neuronal acetylcholine receptor; alpha2/beta2, sequence (P12389 whole entry): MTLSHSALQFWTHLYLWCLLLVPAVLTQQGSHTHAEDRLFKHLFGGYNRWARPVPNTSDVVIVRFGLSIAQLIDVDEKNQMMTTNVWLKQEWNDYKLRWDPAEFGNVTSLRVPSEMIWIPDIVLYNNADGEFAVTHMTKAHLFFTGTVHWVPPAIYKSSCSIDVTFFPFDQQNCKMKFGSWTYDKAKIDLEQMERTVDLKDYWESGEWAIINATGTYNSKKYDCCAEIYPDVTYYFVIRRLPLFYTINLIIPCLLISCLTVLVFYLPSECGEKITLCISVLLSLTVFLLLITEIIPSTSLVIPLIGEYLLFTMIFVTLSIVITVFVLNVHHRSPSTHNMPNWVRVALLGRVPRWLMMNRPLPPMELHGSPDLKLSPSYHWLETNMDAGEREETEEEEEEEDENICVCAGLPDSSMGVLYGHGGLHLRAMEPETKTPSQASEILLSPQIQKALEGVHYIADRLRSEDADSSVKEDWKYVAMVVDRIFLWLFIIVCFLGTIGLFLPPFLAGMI
Neuronal acetylcholine receptor; alpha2/beta2, sequence (P12390 whole entry): as the sequence (P12390 whole entry) above

[6] = molecular target: Neuronal acetylcholine receptor; alpha4/beta2 (Rattus norvegicus, UniProt P09483+P12390); assay: Binding affinity towards rat Nicotinic acetylcholine receptor alpha4-beta2 expressed in HEK293 cells using [3H]EB as radioligand; type: cell-based
Neuronal acetylcholine receptor; alpha4/beta2, sequence (P09483 whole entry): as the sequence (P09483 whole entry) above
Neuronal acetylcholine receptor; alpha4/beta2, sequence (P12390 whole entry): as the sequence (P12390 whole entry) above

[7] = Ratio between the binding affinities towards rat alpha3-beta4 and alpha3-beta2 nACh receptor using [3H]EB as radioligand
[8] = Ratio between the binding affinities towards rat alpha2-beta4 and alpha2-beta2 nACh receptor using [3H]-EB as radioligand
[9] = Ratio between the binding affinities towards rat alpha3-beta4 and forebrain nACh receptor using [3H]EB as radioligand
[10] = molecular target: Neuronal acetylcholine receptor; assay: Binding affinity towards rat forebrain nicotinic acetylcholine receptor using [3H]EB as radioligand
[11] = Ratio between the binding affinities towards rat alpha4-beta4 and alpha4-beta2 nACh receptor using [3H]EB as radioligand

| SMILES | pKi [1] | pKi [2] | pKi [3] | pKi [4] | pKi [5] | pKi [6] | Ratio [7] | Ratio [8] | Ratio [9] | pKi [10] | Ratio [11] |
| --- | --- | --- | --- | --- | --- | --- | --- | --- | --- | --- | --- |
| c1cncc(OC[C@@H]2CCN2)c1 | 7.77 | 7.14 | 8.15 | 9.62 | 10.13 | 9.85 |  |  |  |  |  |
| Clc1ccc(C2CC3CCC2N3)cn1 (racemic; form 2) [EPIBATIDINE] | 9.89 |  |  |  |  |  |  |  |  |  |  |
| C[N+]1(C)CCN(c2ccccc2)CC1 [DIMETHYLPHENYLPIPERAZINIUM IODIDE] | 5.89 | 6.10 |  | 7.38 | 7.55 |  |  |  |  |  |  |
| CN1CCC[C@H]1c1cccnc1 [NICOTINE] | 6.89 |  |  |  |  |  |  |  |  |  |  |
| C[N+](C)(C)CCO [CHOLINE] | 4.68 | 4.32 | 4.47 | 4.43 | 4.74 | 4.43 | 1 | 1 | 1 | 4.38 | 1 |
| Clc1ccc(C2CC3CCC2N3)cn1 (racemic; form 1) [EPIBATIDINE] | 10.06 |  |  |  |  |  |  |  |  |  |  |
| C[N+](C)(C)CCOC(N)=O [CARBACHOL] | 6.19 | 5.32 | 5.89 | 5.96 | 6.68 | 6.23 |  |  |  |  |  |
| Ic1cncc(O[C@H]2CCN2)c1 | 7.33 | 6.54 | 7.62 | 9.38 | 10.51 | 10.21 | 690 | 1520 | 2070 | 9.85 | 387 |
| O=c1cccc2n1C[C@@H]1CNC[C@H]2C1 [CYTISINICLINE] | 8.26 |  | 8.66 | 7.43 | 8.85 | 8.82 | 6 | 4 | 84 | 8.60 | 1 |
| CC(=O)OCC[N+](C)(C)C [ACETYLCHOLINE] | 6.74 |  |  |  | 7.96 |  |  |  |  |  |  |
